In patent US9233964B2, “Sulfamide piperazine derivatives as protein tyrosine kinase inhibitors and pharmaceutical use therof” (LEO PHARMA A/S, priority 2011, dated 2016):

Experiments:
Format in all cases: biochemical
JAK1 = molecular target: T1, JAK1 (Homo sapiens, UniProt P23458); test: JAK kinase assay (HTRF, phosphorylation of synthetic peptide), JAK1; settings: catalytic domain, ATP at Km (7 μM); read-out: JAK1 kinase inhibitory activity (EC50)
T1 construct: JAK1 (aa 850-1154) and TYK2 (aa 871-1187) are expressed with an N-terminally fused GST-tag; GST (N); purchased Carna Biosciences, Inc; host or cells: baculovirus expression system
T1 sequence (P23458 850-1154): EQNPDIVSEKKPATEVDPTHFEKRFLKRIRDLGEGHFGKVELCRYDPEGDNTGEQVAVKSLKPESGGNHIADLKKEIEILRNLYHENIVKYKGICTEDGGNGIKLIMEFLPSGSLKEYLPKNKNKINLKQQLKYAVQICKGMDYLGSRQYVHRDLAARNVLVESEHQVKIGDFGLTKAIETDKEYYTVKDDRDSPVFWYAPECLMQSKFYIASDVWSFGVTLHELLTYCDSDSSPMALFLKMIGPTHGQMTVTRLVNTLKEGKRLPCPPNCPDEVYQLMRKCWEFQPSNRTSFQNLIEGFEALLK
Summary of the method: (§1)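 Catalytic-domain human JAK1 (GST-tagged, aa 850-1154) or His-tagged JAK2, baculovirus-expressed, phosphorylated 1 µM biotinylated TK peptide at Km ATP (JAK1 7 µM, 10 mM MgCl2, 50 nM SEB; JAK2 4 µM, 5 mM MgCl2) in pH 7.0 Hepes, 20-30 min RT. EDTA stop; overnight streptavidin-XL665/cryptate HTRF read.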

JAK2 = molecular target: T2, JAK2 (Homo sapiens, UniProt O60674); test: JAK kinase assay (HTRF, phosphorylation of synthetic peptide), JAK2; settings: catalytic domain, ATP at Km (4 μM); read-out: JAK2 kinase inhibitory activity (EC50)
T2 construct: All four purified enzymes contain only the catalytic domain; His (N); purchased Carna Biosciences, Inc; host or cells: baculovirus expression system
T2 sequence (O60674 849-1124 limits assumed): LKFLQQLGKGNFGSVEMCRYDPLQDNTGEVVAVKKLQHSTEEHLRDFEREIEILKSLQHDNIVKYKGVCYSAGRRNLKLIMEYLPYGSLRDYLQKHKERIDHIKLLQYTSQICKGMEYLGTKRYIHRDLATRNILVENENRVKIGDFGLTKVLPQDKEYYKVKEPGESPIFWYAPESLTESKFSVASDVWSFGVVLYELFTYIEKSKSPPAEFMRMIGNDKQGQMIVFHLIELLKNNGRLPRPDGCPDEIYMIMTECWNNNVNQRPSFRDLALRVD
Summary of the method: as §1

JAK3 = molecular target: T3, JAK3 (Homo sapiens, UniProt P52333); test: JAK kinase assay (HTRF, phosphorylation of synthetic peptide), JAK3; settings: catalytic domain, ATP at Km (2 μM); read-out: JAK3 kinase inhibitory activity (EC50)
T3 construct: All four purified enzymes contain only the catalytic domain; His (N); purchased Carna Biosciences, Inc; host or cells: baculovirus expression system
T3 sequence (P52333 822-1111 limits assumed): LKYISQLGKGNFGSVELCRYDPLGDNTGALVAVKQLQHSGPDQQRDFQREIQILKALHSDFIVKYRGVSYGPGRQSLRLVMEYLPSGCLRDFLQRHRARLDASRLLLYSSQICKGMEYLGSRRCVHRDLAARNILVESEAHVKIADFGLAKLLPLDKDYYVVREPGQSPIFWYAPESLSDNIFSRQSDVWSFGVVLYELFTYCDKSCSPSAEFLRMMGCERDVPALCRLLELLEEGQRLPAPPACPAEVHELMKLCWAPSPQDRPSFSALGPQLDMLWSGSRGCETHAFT

TYK2 = molecular target: T4, TYK2 (Homo sapiens, UniProt P29597); test: JAK kinase assay (HTRF, phosphorylation of synthetic peptide), TYK2; settings: catalytic domain, ATP at Km (13 μM); read-out: TYK2 kinase inhibitory activity (EC50)
T4 construct: JAK1 (aa 850-1154) and TYK2 (aa 871-1187) are expressed with an N-terminally fused GST-tag; GST (N); purchased Carna Biosciences, Inc; host or cells: baculovirus expression system
T4 sequence (P29597 871-1187): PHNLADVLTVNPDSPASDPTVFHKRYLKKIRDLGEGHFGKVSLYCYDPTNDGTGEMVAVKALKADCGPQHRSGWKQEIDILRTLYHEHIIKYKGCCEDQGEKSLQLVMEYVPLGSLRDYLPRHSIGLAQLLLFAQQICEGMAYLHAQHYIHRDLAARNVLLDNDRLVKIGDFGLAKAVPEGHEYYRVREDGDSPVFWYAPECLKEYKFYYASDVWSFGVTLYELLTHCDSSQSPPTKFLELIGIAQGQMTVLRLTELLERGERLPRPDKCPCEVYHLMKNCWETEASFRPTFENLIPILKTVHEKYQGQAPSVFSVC
Summary of the method: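 1 µM biotinylated TK peptide at Km ATP in pH 7.0 Hepes, 20-30 min RT. EDTA stop; overnight streptavidin-XL665/cryptate HTRF read.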

SMILES | EC50 (JAK1) [nM] | EC50 (JAK2) [nM] | EC50 (JAK3) [nM] | EC50 (TYK2) [nM]
CN(CC1CCN(S(=O)(=O)CCCC#N)CC1)S(=O)(=O)N1CCN(c2ncnc3[nH]ccc23)CC12CC2 [Example 159, N-[[1-(3-cyanopropylsulfonyl)-4-piperidyl]methyl]-N-methyl-5-(7H-pyrrolo[2,3-d]pyrimidin-4-yl)-5,8-diazaspiro[2.5]octane-8-sulfonamide] | < 100 | < 100 | < 100 | 100 to 500
CN(C[C@@H]1CC(F)(F)CN1C(=O)CCO)S(=O)(=O)N1CCN(c2ncnc3[nH]ccc23)CC12CC2 [Example 155, N-[[(2S)-4,4-difluoro-1-(3-hydroxypropanoyl)pyrrolidin-2-yl]methyl]-N-methyl-5-(7H-pyrrolo[2,3-d]pyrimidin-4-yl)-5,8-diazaspiro[2.5]octane-8-sulfonamide] | < 100 | < 100 | < 100 | < 100
N#CCCCN(CCO)S(=O)(=O)N1CCN(c2ncnc3[nH]ccc23)CC12CC2 [Example 110, N-(3-cyanopropyl)-N-(2-hydroxyethyl)-5-(7H-pyrrolo[2,3-d]pyrimidin-4-yl)-5,8-diazaspiro[2.5]octane-8-sulfonamide] | < 100 | < 100 | < 100 | 100 to 500
CN(C[C@H]1CCCN1C(=O)C(O)CO)S(=O)(=O)N1CCN(c2ncnc3[nH]ccc23)CC12CC2 (stereo partly drawn) [Example 186, N-[[(2R)-1-(2,3-dihydroxypropanoyl)pyrrolidin-2-yl]methyl]-N-methyl-5-(7H-pyrrolo[2,3-d]pyrimidin-4-yl)-5,8-diazaspiro[2.5]octane-8-sulfonamide] | < 100 | < 100 | < 100 | < 100
CN(CC12C3C4C1C1C2C3C41C#N)S(=O)(=O)N1CCN(c2ncnc3[nH]ccc23)CC12CC2 (centres unmarked) [Example 177, N-[(4-cyanocuban-1-yl)methyl]-N-methyl-5-(7H-pyrrolo[2,3-d]pyrimidin-4-yl)-5,8-diazaspiro[2.5]octane-8-sulfonamide] | < 100 | < 100 | < 100 | < 100
N#CCCCN(C1CCC1)S(=O)(=O)N1CCN(c2ncnc3[nH]ccc23)CC12CC2 [Example 102, N-(3-cyanopropyl)-N-cyclobutyl-5-(7H-pyrrolo[2,3-d]pyrimidin-4-yl)-5,8-diazaspiro[2.5]octane-8-sulfonamide] | < 100 | < 100 | < 100 | 100 to 500
N#CCCCNS(=O)(=O)N1CCN(c2ncnc3[nH]ccc23)CC12CC2 [Example 55, 7-(7H-Pyrrolo[2,3-d]pyrimidin-4-yl)-4,7-diaza-spiro[2.5]octane-4-sulfonic acid (3-cyano-propyl)-amide] | < 100 | < 100 | < 100 | 100 to 500
O=S1(=O)CCC(CN(CCO)S(=O)(=O)N2CCN(c3ncnc4[nH]ccc34)CC23CC3)C1 (centres unmarked) [Example 167, N-[(1,1-dioxothiolan-3-yl)methyl]-N-(2-hydroxyethyl)-5-(7H-pyrrolo[2,3-d]pyrimidin-4-yl)-5,8-diazaspiro[2.5]octane-8-sulfonamide] | < 100 | < 100 | < 100 | 100 to 500
CN(C[C@@H]1CC(F)(F)CN1C(=O)CCC#N)S(=O)(=O)N1CCN(c2ncnc3[nH]ccc23)CC12CC2 [Example 156, N-[[(2S)-1-(3-cyanopropanoyl)-4,4-difluoro-pyrrolidin-2-yl]methyl]-N-methyl-5-(7H-pyrrolo[2,3-d]pyrimidin-4-yl)-5,8-diazaspiro[2.5]octane-8-sulfonamide] | < 100 | < 100 | < 100 | < 100
N#CC1CCN(S(=O)(=O)N2CCN(c3ncnc4[nH]ccc34)CC23CC3)CC1 [Example 39, 1-[7-(7H-Pyrrolo[2,3-d]pyrimidin-4-yl)-4,7-diaza-spiro[2.5]octane-4-sulfonyl]-piperidine-4-carbonitrile] | < 100 | < 100 | 100 to 500 | > 500
CC(C#N)N(C1CCC1)S(=O)(=O)N1CCN(c2ncnc3[nH]ccc23)CC12CC2 (centres unmarked) [Example 107, N-(1-cyanoethyl)-N-cyclobutyl-5-(7H-pyrrolo[2,3-d]pyrimidin-4-yl)-5,8-diazaspiro[2.5]octane-8-sulfonamide] | < 100 | < 100 | < 100 | 100 to 500
CC(C#N)N(C1COC1)S(=O)(=O)N1CCN(c2ncnc3[nH]ccc23)CC12CC2 (centres unmarked) [Example 117, N-(1-cyanoethyl)-N-(oxetan-3-yl)-5-(7H-pyrrolo[2,3-d]pyrimidin-4-yl)-5,8-diazaspiro[2.5]octane-8-sulfonamide] | < 100 | < 100 | < 100 | 100 to 500

Results, then the compound that gave them:

EC50 (JAK1) [nM] | EC50 (JAK2) [nM] | EC50 (JAK3) [nM] | EC50 (TYK2) [nM] | SMILES
< 100 | < 100 | < 100 | 100 to 500 | CN(C[C@@H]1CCCN1C=O)S(=O)(=O)N1CCN(c2ncnc3[nH]ccc23)CC12CC2 [Example 191, N-[[(2S)-1-formylpyrrolidin-2-yl]methyl]-N-methyl-5-(7H-pyrrolo[2,3-d]pyrimidin-4-yl)-5,8-diazaspiro[2.5]octane-8-sulfonamide]
< 100 | < 100 | 100 to 500 | > 500 | CN(CCOc1cccc(C#N)c1)S(=O)(=O)N1CCN(c2ncnc3[nH]ccc23)CC12CC2 [Example 71, N-[2-(3-cyanophenoxy)ethyl]-N-methyl-5-(7H-pyrrolo[2,3-d]pyrimidin-4-yl)-5,8-diazaspiro[2.5]octane-8-sulfonamide]
< 100 | < 100 | < 100 | 100 to 500 | COc1ccc(CCN(C)S(=O)(=O)N2CCN(c3ncnc4[nH]ccc34)CC23CC3)cc1OC [Example 51, 7-(7H-Pyrrolo[2,3-d]pyrimidin-4-yl)-4,7-diaza-spiro[2.5]octane-4-sulfonic acid [2-(3,4-dimethoxy-phenyl)-ethyl]-methyl-amide]
< 100 | < 100 | 100 to 500 | 100 to 500 | CN(C1CC1)S(=O)(=O)N1CCN(c2ncnc3[nH]ccc23)CC12CC2 [Example 141, N-cyclopropyl-N-methyl-5-(7H-pyrrolo[2,3-d]pyrimidin-4-yl)-5,8-diazaspiro[2.5]octane-8-sulfonamide]
< 100 | < 100 | 100 to 500 | 100 to 500 | CN(C1CCC1)S(=O)(=O)N1CCN(c2ncnc3[nH]ccc23)CC12CC2 [Example 98, N-cyclobutyl-N-methyl-5-(7H-pyrrolo[2,3-d]pyrimidin-4-yl)-5,8-diazaspiro[2.5]octane-8-sulfonamide]
< 100 | < 100 | < 100 | < 100 | CN(CCn1cccc1)S(=O)(=O)N1CCN(c2ncnc3[nH]ccc23)CC12CC2 [Example 26, 7-(7H-Pyrrolo[2,3-d]pyrimidin-4-yl)-4,7-diaza-spiro[2.5]octane-4-sulfonic acid methyl-(2-pyrrol-1-yl-ethyl)-amide]
< 100 | < 100 | < 100 | < 100 | CN(Cc1cccc(S(N)(=O)=O)c1)S(=O)(=O)N1CCN(c2ncnc3[nH]ccc23)CC12CC2 [Example 90, N-methyl-5-(7H-pyrrolo[2,3-d]pyrimidin-4-yl)-N-[(3-sulfamoylphenyl)methyl]-5,8-diazaspiro[2.5]octane-8-sulfonamide]
< 100 | < 100 | 100 to 500 | > 500 | CC(C)N(C)S(=O)(=O)N1CCN(c2ncnc3[nH]ccc23)CC12CC2 [Example 94, N-isopropyl-N-methyl-5-(7H-pyrrolo[2,3-d]pyrimidin-4-yl)-5,8-diazaspiro[2.5]octane-8-sulfonamide]
> 500 | 100 to 500 | > 500 | > 500 | O=S(=O)(N(CCCc1ccccc1)CCc1ccccc1)N1CCN(c2ncnc3[nH]ccc23)CC12CC2 [Example 9, 7-(7H-Pyrrolo[2,3-d]pyrimidin-4-yl)-4,7-diaza-spiro[2.5]octane-4-sulfonic acid phenethyl-(3-phenyl-propyl)-amide]
< 100 | < 100 | 100 to 500 | > 500 | CN(C1CNC1)S(=O)(=O)N1CCN(c2ncnc3[nH]ccc23)CC12CC2 [Int 50]
100 to 500 | 100 to 500 | > 500 | > 500 | CN(CC1CCCNC1)S(=O)(=O)N1CCN(c2ncnc3[nH]ccc23)CC12CC2 (centres unmarked) [Int 27]
